{"source": "paper PMC7216467", "about": "“Evaluation of neuroprotective and anti-amnesic effects of Elaeagnus umbellata Thunb. On scopolamine-induced memory impairment in mice” (BMC Complementary Medicine and Therapies, 2020)", "key": {"AChE": {"target": "T1, AChE (Mus musculus, UniProt P21836)", "T1 construct": "supernatants were collected from homogenized part of brain tissues; from tissue; host or cells: mouse frontal cortex and hippocampus homogenate supernatant", "T1 sequence (P21836 32-614)": "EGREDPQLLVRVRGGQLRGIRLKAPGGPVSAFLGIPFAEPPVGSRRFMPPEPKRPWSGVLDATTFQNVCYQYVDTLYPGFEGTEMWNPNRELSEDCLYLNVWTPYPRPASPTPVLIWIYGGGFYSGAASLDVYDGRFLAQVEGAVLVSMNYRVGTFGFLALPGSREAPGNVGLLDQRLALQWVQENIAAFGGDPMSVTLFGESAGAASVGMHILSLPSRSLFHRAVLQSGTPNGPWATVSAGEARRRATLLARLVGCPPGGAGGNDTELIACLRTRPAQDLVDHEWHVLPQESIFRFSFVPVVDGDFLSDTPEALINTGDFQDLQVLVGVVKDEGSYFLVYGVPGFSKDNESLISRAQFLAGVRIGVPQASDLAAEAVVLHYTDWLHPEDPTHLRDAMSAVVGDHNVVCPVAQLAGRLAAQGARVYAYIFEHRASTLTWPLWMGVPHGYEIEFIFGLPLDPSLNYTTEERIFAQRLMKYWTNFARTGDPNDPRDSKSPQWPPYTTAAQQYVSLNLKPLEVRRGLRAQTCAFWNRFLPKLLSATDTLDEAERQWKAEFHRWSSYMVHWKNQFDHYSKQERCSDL", "format": "in vivo", "conditions": "ex vivo, NORT animals, vs scopolamine treated group", "description": "(§1) The frontal cortex (FC) and hippocampus (HC) were dissected out in ice cold 0.1 M phosphate buffer saline (pH 8.0). The tissues were weighed and 20 mg tissue/mL homogenate of brain samples was prepared in phosphate buffer (pH 8.0). The homogenates were centrifuged at 10,000 rpm for 10 min at 4 °C, and the resulting supernatant was used for the estimation of anti-cholinesterase activity following Ellman’s and antioxidants assays.\n(§2) Ex vivo analysis of cholinesterase inhibitory potentials was also measured to check the cholinergic hypo function in animal model using the isolated compound CGA and CHF extract."}, "BChE": {"target": "T2, BChE (Mus musculus, UniProt Q03311)", "T2 construct": "supernatants were collected from homogenized part of brain tissues; from tissue; host or cells: mouse frontal cortex and hippocampus homogenate supernatant", "T2 sequence (Q03311 30-603)": "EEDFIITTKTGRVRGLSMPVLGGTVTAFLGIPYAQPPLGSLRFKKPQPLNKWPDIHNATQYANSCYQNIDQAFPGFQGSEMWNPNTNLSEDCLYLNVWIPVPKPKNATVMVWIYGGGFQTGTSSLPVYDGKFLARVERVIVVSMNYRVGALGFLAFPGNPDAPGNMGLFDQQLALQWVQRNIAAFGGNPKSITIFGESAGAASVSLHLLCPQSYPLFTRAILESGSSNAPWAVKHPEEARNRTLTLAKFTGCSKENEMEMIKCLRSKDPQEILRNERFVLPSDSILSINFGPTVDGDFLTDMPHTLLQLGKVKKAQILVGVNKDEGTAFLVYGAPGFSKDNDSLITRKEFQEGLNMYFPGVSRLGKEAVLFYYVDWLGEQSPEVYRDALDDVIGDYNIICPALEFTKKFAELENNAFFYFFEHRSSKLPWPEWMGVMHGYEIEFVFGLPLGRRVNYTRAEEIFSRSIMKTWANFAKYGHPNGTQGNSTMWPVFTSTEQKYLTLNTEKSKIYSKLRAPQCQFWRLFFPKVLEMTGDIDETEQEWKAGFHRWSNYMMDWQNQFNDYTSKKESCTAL", "format": "in vivo", "conditions": "ex vivo, NORT animals, vs scopolamine treated group", "description": "as §1, §2"}, "mice": {"tested_on": "mice", "conditions": "Swiss albino, mouse, in vivo, po, 72 h", "description": "All animals were then treated orally with different doses of CHF. […] Immediately after dosing, the mice were observed continuously for 4 h for symptoms of toxicity such as motor activity, convulsions, muscle spasm, tremors, sedation, lacrimation, hypnosis, diarrhoea, salivation, and loss of righting reflex. Mice were then kept under observation up to 72 h for any mortality. The CHF. […] Therefore, according to OECD guidelines, CHF."}, "[1]": {"target": "T3, Acetyl cholinesterase (Electron-eel Type, VI-S) (Electrophorus electricus, UniProt O42275)", "T3 construct": "purchased Sigma-Aldrich, Germany", "T3 sequence (O42275 24-633)": "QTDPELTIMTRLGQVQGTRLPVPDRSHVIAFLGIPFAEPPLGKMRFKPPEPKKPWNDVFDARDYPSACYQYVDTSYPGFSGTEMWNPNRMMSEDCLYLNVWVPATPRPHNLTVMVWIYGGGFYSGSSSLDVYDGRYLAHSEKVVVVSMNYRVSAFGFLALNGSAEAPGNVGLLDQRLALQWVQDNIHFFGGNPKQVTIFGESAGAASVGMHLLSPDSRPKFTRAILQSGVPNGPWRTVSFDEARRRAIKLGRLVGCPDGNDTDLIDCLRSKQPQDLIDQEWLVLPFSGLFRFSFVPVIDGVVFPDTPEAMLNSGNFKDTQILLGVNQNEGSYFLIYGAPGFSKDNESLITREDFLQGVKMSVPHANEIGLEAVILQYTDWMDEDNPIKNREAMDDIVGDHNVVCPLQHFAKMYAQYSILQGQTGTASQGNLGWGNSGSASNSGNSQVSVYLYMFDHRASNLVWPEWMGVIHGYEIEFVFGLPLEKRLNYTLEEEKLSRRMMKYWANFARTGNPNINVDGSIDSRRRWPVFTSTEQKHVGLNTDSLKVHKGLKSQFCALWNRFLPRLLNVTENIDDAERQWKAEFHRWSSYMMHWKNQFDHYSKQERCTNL", "assay": "biochemical", "format": "biochemical", "description": "Ellman assay was used to evaluate E. umbellata fruit extracts and isolated compounds for their anticholinesterase potentials. About 205 μL extract/compound solutions and 5 μL of AChE (0.03 U/mL)/BChE (0.01 U/mL) along with catalyst DTNB (5 μL) were taken in a cuvette and kept at 30 °C in hot water bath for 15 min. […] As a negative control solution all the above mentioned components except extracts and isolated compounds were mixed in the mentioned order.\nV is inhibitor dependent rate of reaction while, Vmax is inhibitor independent rate of reaction."}, "[2]": {"tested_on": "scopolamine-induced cognitive impairment in mice", "assay": "Y-maze test, scopolamine-induced amnesia", "format": "in vivo", "description": "(§3) After the acclimatization period, in scopolamine-induced amnesia test the Albino male mice were randomly divided into six groups (n = 6) to study the effect of CHF. […] The doses of tested solutions of CHF. […] The treatments were continued for 8 days. In the Y-maze and Novel object recognition tests, scopolamine (1 mg/kg, i.p.) was given to the different groups only on the 8th day, 30 min after the respective treatments, to induce cognitive deficit in mice. One hour after administration of the drugs all animals were subjected to Y-maze and Novel object recognition test following standard procedure.\nThe Y-Maze test was designed to evaluate the short term memory in experimental mice using reported procedure. Y-maze apparatus is Y shaped with three arms of equivalent size, labelled as A, B, and C. Each arm was 20 cm long, 6 cm wide and 15.5 cm high and was oriented at an angle of 120° from the other two. For each animal the Y maze testing was carried out for 5 min. Mice were placed in one arm, and the order and number of arm entries were recorded. An arm entry was considered to be complete when the hind paws of the mice was completely inside a given arm while alternation was defined as consecutive entries by a mouse into the three different arms. The arena was cleaned using 70% v/v ethanol between each trial to avoid olfactory cues. The escape latency (second) on day 1–5 were recorded for all animals. At the end of 5th day, the spontaneous alteration behavior study was conducted. In spontaneous alteration study, each animal was placed at the center of the Y-Maze apparatus and allowed to move freely through the maze. The series of arm entries were visually recorded. To start behavioral test the mice was set in one arm and recorded the number of arm entries, same arm returns (SAR), and alternate arm returns (AAR) were measured. Percent spontaneous alternation performance (SAP) was calculated by the following formula: 5 %SAP=Active alterationstotal alterations/Possible alterationstotalarmentries−2x100"}, "[3]": {"tested_on": "scopolamine-induced cognitive impairment in mice", "assay": "Novel object recognition test, scopolamine-induced amnesia", "format": "in vivo", "description": "as §3\nThe detail methodology published, was followed while performing the novel object recognition (NORT) test. NORT consisting of habituation, sample, and test phases. On the day before test, mice were allowed to explore the box (without any object) for 2 min. On the day of test after habituation the sample phase was carried out 60 min after the last treatment on the 8th day. In sample phase each mouse was placed in an open field with two identical objects (plastic ball) for 5 min. The mouse was then returned to its home cage. The apparatus was comprised of a white coloured plywood box (40 cm × 40 cm × 66 cm) with a network floors that could be effortlessly cleaned (with 70%v/v ethanol) after every trial. The apparatus was illuminated by a 60 W light suspended 50 cm over the crate. The arena and objects were cleaned with 70% v/v ethanol between trials to avoid olfactory cues. For short-term memory, the test phase was performed 5 min after the sample phase. In the test phase, each mouse was placed again in the open field in which one of the identical objects had been replaced with a novel object (plastic square). The location of the object was counterbalanced so that one half of the mice in each group saw the novel object on the left side of the box arena, and the other half saw the novel object on the right side of the box arena to eliminate bias of sides. NORT can also be used for encoding and retrieval of spatial memory (long-term memory). A wash-out period of 5 days was allowed before the NORT to assess long-term memory in mice. The procedure was the same as that for short-term memory except that mice were presented in the test phase 24 h after the sample phase exposure. The time spent exploring each object in each phase was recorded manually using a stopwatch. A mouse was scored as exploring when its head was oriented towards the object within a distance of 2 cm or when the nose was in contact with the object. Parameters including the time (in seconds) spent exploring familiar (F) object, time (in seconds) spent exploring the novel (N) object, and total time (in seconds) spent exploring both objects (N + F) were measured separately."}, "[4]": {"assay": "Ex vivo brain DPPH free radicals scavenging activity", "format": "in vivo, mice", "description": "as §1"}, "[5]": {"conditions": "vs scopolamine (1 mg/kg) group, CHF. Ext 200 mg/kg, CGA 10 and 30 mg/kg, donepezil 2 mg/kg"}}}
{"smiles": "O=C(/C=C/c1ccc(O)c(O)c1)O[C@@H]1C[C@](O)(C(=O)O)C[C@@H](O)[C@H]1O", "note": "[Compound-I, Chlorogenic acid]", "values": [{"measurement": "% AChE activity in cortex and hippocampus", "setting": "AChE", "result": "significantly (***p < 0.001; **p < 0.01) lower"}, {"measurement": "% BChE activity in cortex and hippocampus", "setting": "BChE", "result": "significantly (***p < 0.001; **p < 0.01) lower"}, {"measurement": "dose range that remained safe and nontoxic", "setting": "mice", "result": "up to 300 mg/kg"}, {"measurement": "% AChE Mean ± SEM", "setting": "[1]; 31.05 µg/mL", "result": "50±0.4^ ns %"}, {"measurement": "% AChE Mean ± SEM", "setting": "[1]; 62.5 µg/mL", "result": "59±0.3", "unit": "%"}, {"measurement": "% AChE Mean ± SEM", "setting": "[1]; 125 µg/mL", "result": "68±0.4", "unit": "%"}, {"measurement": "% AChE Mean ± SEM", "setting": "[1]; 250 µg/mL", "result": "76±0.5", "unit": "%"}, {"measurement": "% AChE Mean ± SEM", "setting": "[1]; 500 µg/mL", "result": "82±0.1", "unit": "%"}, {"measurement": "% AChE Mean ± SEM", "setting": "[1]; 1000 µg/mL, listed as Compound -I", "result": "90±0.2^ns %"}, {"measurement": "% AChE Mean ± SEM", "setting": "[1]; 1000 µg/mL, listed as Compound I", "result": "90 ± 0.2", "unit": "%"}, {"measurement": "IC50", "setting": "[1]; linear regression, read-out: AChE IC50 (converted)", "result": 87.5, "unit": "µM"}, {"measurement": "escape latency", "setting": "[2]; day 1-5, vs scopolamine treated group", "result": "significant decline (p < 0.001)"}, {"measurement": "total numbers of entries into arms", "setting": "[2]; treated groups compared to control group", "result": "non-significant (p > 0.05) decrease"}, {"measurement": "percentage of alternate arm returns", "setting": "[2]; [5]", "result": "significant (*p<0.05; **p < 0.01) increase"}, {"measurement": "percentage of same arm returns", "setting": "[2]; [5]", "result": "significant (p < 0.01) reduction"}, {"measurement": "time for exploration of novel object, test phase, long term memory", "setting": "[3]; CHF. Ext 100 & 200 mg/kg, CGA 10 & 30 mg/kg, donepezil 2 mg/kg", "result": "significant (*p < 0.05, **p < 0.01) increase"}, {"measurement": "%DI, long term memory", "setting": "[3]; CHF. Ext 100, 200 mg/kg, CGA 10 & 30 mg/kg, donepezil 2 mg/kg", "result": "significant (*p < 0.05, **p < 0.01) increase"}, {"measurement": "time with novel object, test phase, short term memory", "setting": "[3]; vs scopolamine group (*p < 0.05, **p < 0.01), CHF. Ext 50, 100, 200 mg/kg, CGA 10 and 30 mg/kg, donepezil 2 mg/kg", "result": "more time with novel object"}, {"measurement": "time for exploration of two objects, sample phase, short term memory", "setting": "[3]; vs scopolamine treated group", "result": "no significant difference"}, {"measurement": "total time spent exploring the two identical objects, sample phase, long term memory", "setting": "[3]; vs scopolamine treated group", "result": "no significant differences"}, {"measurement": "% anti-radicals activities (DPPH) in cortex", "setting": "[4]; NORT animals, cortex", "result": "51.43 ± 2.88", "unit": "%"}, {"measurement": "% anti-radicals activities (DPPH) in hippocampus", "setting": "[4]; NORT animals, hippocampus", "result": "65.36 ± 1.45", "unit": "%"}, {"measurement": "% DPPH inhibition potential in cortex", "setting": "[4]; Y-maze test animals, frontal cortex", "result": "47.85 ± 2.11", "unit": "%"}, {"measurement": "% DPPH inhibition potential in hippocampus", "setting": "[4]; Y-maze test animals, hippocampus", "result": "44.12 ± 1.77", "unit": "%"}]}
